US10947252B2, “Inhibitors of KEAP1-Nrf2 protein-protein interaction” (Janssen Pharmaceutica NV, priority 2018, dated 2021)

What was measured:
[1] = molecular target: Kelch domain of human KEAP1 (321-624 aa) (Homo sapiens (Human), UniProt Q14145); test: KEAP1 KELCH ThermoFluor binding assay; conditions: KEAP Kelch […], 1,8-ANS, pH 7.0, average of results obtained, read-out: Tf Kd;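 further: Ligand-induced melting temperature shift of E. coli-expressed KEAP1 Kelch protein, Kd estimated from concentration-response curves of ΔTm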
[2] = tested on: Glo-Response ARE-luc2P HEK293 cell line; test: ARE luciferase reporter cell-based assay; conditions: Homo sapiens, HEK293, 24 h, average of results obtained;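 further: luciferase signal tracks Nrf2 activation of the ARE once compounds disrupt KEAP1-Nrf2 binding, read with One-Glo reagent, DMSO serving as low control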

Chain of Kelch domain of human KEAP1 (321-624 aa) (Q14145 321-624): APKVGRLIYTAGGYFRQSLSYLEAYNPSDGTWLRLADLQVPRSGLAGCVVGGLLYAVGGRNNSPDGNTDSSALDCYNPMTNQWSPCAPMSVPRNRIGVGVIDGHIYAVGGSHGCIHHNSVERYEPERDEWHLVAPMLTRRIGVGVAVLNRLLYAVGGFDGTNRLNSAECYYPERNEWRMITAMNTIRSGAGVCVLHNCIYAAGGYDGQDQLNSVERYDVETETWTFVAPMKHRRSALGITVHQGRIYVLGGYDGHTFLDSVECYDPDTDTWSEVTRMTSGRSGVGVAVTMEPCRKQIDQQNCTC

Compound	Kd [1] [nM]	EC50 [2] [nM]
Cc1ccc([C@H](CC(=O)O)c2ccn3c(C(F)(F)F)nnc3c2C)cc1CN1C[C@H]2CCCN2c2ncccc2S1(=O)=O (single isomer, unassigned) [Example 389, (*S)-3-(3-(((R)-5,5-Dioxido-7a,8,9,10-tetrahydropyrido[2,3-f]pyrrolo[2,1-d][1,2,5]thiadiazepin-6(7H)-yl)methyl)-4-methylphenyl)-3-(8-methyl-3-(trifluoromethyl)-[1,2,4]triazolo[4,3-a]pyridin-7-yl)propanoic Acid]	< 1	12.1
Cc1ccc([C@@H](CC(=O)O)c2ccn3c(C(F)(F)F)nnc3c2C)cc1CN1C[C@H]2CCCN2c2ncccc2S1(=O)=O (single isomer, unassigned) [Example 390, (*R)-3-(3-(((R)-5,5-Dioxido-7a,8,9,10-tetrahydropyrido[2,3-f]pyrrolo[2,1-d][1,2,5]thiadiazepin-6(7H)-yl)methyl)-4-methylphenyl)-3-(8-methyl-3-(trifluoromethyl)-[1,2,4]triazolo[4,3-a]pyridin-7-yl)propanoic Acid]	< 1	90.9
Cc1cnc2c(c1)S(=O)(=O)N(Cc1cc([C@@H](c3ccn4c(C5CC5)nnc4c3C)C(C)(C)C(=O)O)ccc1C)CC1(CC1)O2 (single isomer, unassigned) [Example 392, (*S)-3-(3-Cyclopropyl-8-methyl-[1,2,4]triazolo[4,3-a]pyridin-7-yl)-2,2-dimethyl-3-(4-methyl-3-((8′-methyl-1′,1′-dioxidospiro[cyclopropane-1,4′-pyrido[2,3-b][1,4,5]oxathiazepin]-2′(3′H)-yl)methyl)phenyl)propanoic Acid]	< 1	11.3
Cc1cnc2c(c1)S(=O)(=O)N(Cc1cc([C@@H](c3ccc4c(nnn4C4CC4)c3C)C(C)(C)C(=O)O)cnc1C)CC1(CC1)O2 (single isomer, unassigned) [Example 395, (*S)-3-(1-Cyclopropyl-4-methyl-1H-benzo[d][1,2,3]triazol-5-yl)-2,2-dimethyl-3-(6-methyl-5-((8′-methyl-1′,1′-dioxidospiro[cyclopropane-1,4′-pyrido[2,3-b][1,4,5]oxathiazepin]-2′(3′H)-yl)methyl)pyridin-3-yl)propanoic Acid]	< 1	15.7
Cc1cnc2c(c1)S(=O)(=O)N(Cc1cc([C@H](c3ccc4c(nnn4C4CC4)c3C)C(C)(C)C(=O)O)cnc1C)CC1(CC1)O2 (single isomer, unassigned) [Example 396, (*R)-3-(1-Cyclopropyl-4-methyl-1H-benzo[d][1,2,3]triazol-5-yl)-2,2-dimethyl-3-(6-methyl-5-((8′-methyl-1′,1′-dioxidospiro[cyclopropane-1,4′-pyrido[2,3-b][1,4,5]oxathiazepin]-2′(3′H)-yl)methyl)pyridin-3-yl)propanoic Acid]	21800	4900
Cc1ccc([C@H](CC(=O)O)c2ccc3c(nnn3C3CC3)c2C)cc1CN1C[C@@H]2CCCCN2c2ncccc2S1(=O)=O (single isomer, unassigned) [Example 398, (*S)-3-(1-Cyclopropyl-4-methyl-1H-benzo[d][1,2,3]triazol-5-yl)-3-(3-(((*S)-5,5-dioxido-7,7a,8,9,10,11-hexahydro-6H-dipyrido[2,1-d:2′,3′-f][1,2,5]thiadiazepin-6-yl)methyl)-4-methylphenyl)propanoic Acid]	< 1	1.4
Cc1ccc(C(CC(=O)O)c2ccc3c(nnn3C3CC3)c2C)cc1CN1C[C@@H]2CCCCN2c2ncccc2S1(=O)=O (single isomer, unassigned) [Example 399, (*R)-3-(1-Cyclopropyl-4-methyl-1H-benzo[d][1,2,3]triazol-5-yl)-3-(3-(((*S)-5,5-dioxido-7,7a,8,9,10,11-hexahydro-6H-dipyrido[2,1-d:2′,3′-][1,2,5]thiadiazepin-6-yl)methyl)-4-methylphenyl)propanoic Acid]	< 1	92.9
Cc1ccc([C@@H](CC(=O)O)c2ccc3c(nnn3CC3CC3)c2C)cc1CN1C[C@H]2CCCN2c2ncccc2S1(=O)=O (single isomer, unassigned) [Example 401, (*R)-3-(1-(Cyclopropylmethyl)-4-methyl-1H-benzo[d][1,2,3]triazol-5-yl)-3-(3-(((R)-5,5-dioxido-7a,8,9,10-tetrahydropyrido[2,3-f]pyrrolo[2,1-d][1,2,5]thiadiazepin-6(7H)-yl)methyl)-4-methylphenyl)propanoic acid]	< 1	2.7

The next lines start with results.

Kd [1] [nM]	Compound	EC50 [2] [nM]
2820	Cc1ccc([C@@H](c2ccn3c(C(F)(F)F)nnc3c2C)C(C)(C)C(=O)O)cc1CN1C[C@]2(CCOC2)Oc2ncccc2S1(=O)=O (single isomer, unassigned) [Example 381, (*S)-3-(3-(((*S)-1′,1′-Dioxido-4,5-dihydro-2H-spiro[furan-3,4′-pyrido[2,3-b][1,4,5]oxathiazepin]-2′(3′H)-yl)methyl)-4-methylphenyl)-2,2-dimethyl-3-(8-methyl-3-(trifluoromethyl)-[1,2,4]triazolo[4,3-a]pyridin-7-yl)propanoic Acid]	427
< 1	Cc1ccc([C@@H](c2ccn3c(C(F)(F)F)nnc3c2C)C(C)(C)C(=O)O)cc1CN1C[C@@]2(CCOC2)Oc2ncccc2S1(=O)=O (single isomer, unassigned) [Example 382, (*S)-3-(3-(((*R)-1′,1′-Dioxido-4,5-dihydro-2H-spiro[furan-3,4′-pyrido[2,3-b][1,4,5]oxathiazepin]-2′(3′H)-yl)methyl)-4-methylphenyl)-2,2-dimethyl-3-(8-methyl-3-(trifluoromethyl)-[1,2,4]triazolo[4,3-a]pyridin-7-yl)propanoic Acid]	1.8
< 1	Cc1cnc2c(c1)S(=O)(=O)N(Cc1cc([C@@H](c3ccn4c(C(F)(F)F)nnc4c3C)C(C)(C)C(=O)O)ccc1C)C[C@]1(CCOC1)O2 (single isomer, unassigned) [Example 383, (*S)-2,2-Dimethyl-3-(4-methyl-3-(((*S)-8′-methyl-1′,1′-dioxido-4,5-dihydro-2H-spiro[furan-3,4′-pyrido[2,3-b][1,4,5]oxathiazepin]-2′(3′H)-yl)methyl)phenyl)-3-(8-methyl-3-(trifluoromethyl)-[1,2,4]triazolo[4,3-a]pyridin-7-yl)propanoic Acid]	1.2
246	Cc1cnc2c(c1)S(=O)(=O)N(Cc1cc([C@@H](c3ccn4c(C(F)(F)F)nnc4c3C)C(C)(C)C(=O)O)ccc1C)C[C@@]1(CCOC1)O2 (single isomer, unassigned) [Example 384, (*S)-2,2-Dimethyl-3-(4-methyl-3-(((*R)-8′-methyl-1′,1′-dioxido-4,5-dihydro-2H-spiro[furan-3,4′-pyrido[2,3-b][1,4,5]oxathiazepin]-2′(3′H)-yl)methyl)phenyl)-3-(8-methyl-3-(trifluoromethyl)-[1,2,4]triazolo[4,3-a]pyridin-7-yl)propanoic Acid]	150
< 1	Cc1ccc([C@H](c2ccn3c(C(F)(F)F)nnc3c2C)C(C)(C)C(=O)O)cc1CN1C[C@]2(CCOC2)Oc2ncccc2S1(=O)=O (single isomer, unassigned) [Example 385, (*R)-3-(3-(((*S)-1′,1′-Dioxido-4,5-dihydro-2H-spiro[furan-3,4′-pyrido[2,3-b][1,4,5]oxathiazepin]-2′(3′H)-yl)methyl)-4-methylphenyl)-2,2-dimethyl-3-(8-methyl-3-(trifluoromethyl)-[1,2,4]triazolo[4,3-a]pyridin-7-yl)propanoic Acid]	1.8
1060	Cc1ccc([C@H](c2ccn3c(C(F)(F)F)nnc3c2C)C(C)(C)C(=O)O)cc1CN1C[C@@]2(CCOC2)Oc2ncccc2S1(=O)=O (single isomer, unassigned) [Example 386, (*R)-3-(3-(((*R)-1′,1′-Dioxido-4,5-dihydro-2H-spiro[furan-3,4′-pyrido[2,3-b][1,4,5]oxathiazepin]-2′(3′H)-yl)methyl)-4-methylphenyl)-2,2-dimethyl-3-(8-methyl-3-(trifluoromethyl)-[1,2,4]triazolo[4,3-a]pyridin-7-yl)propanoic Acid]	343
1230	Cc1cnc2c(c1)S(=O)(=O)N(Cc1cc([C@H](c3ccn4c(C(F)(F)F)nnc4c3C)C(C)(C)C(=O)O)ccc1C)C[C@]1(CCOC1)O2 (single isomer, unassigned) [Example 387, (*R)-2,2-Dimethyl-3-(4-methyl-3-(((*S)-8′-methyl-1′,1′-dioxido-4,5-dihydro-2H-spiro[furan-3,4′-pyrido[2,3-b][1,4,5]oxathiazepin]-2′(3′H)-yl)methyl)phenyl)-3-(8-methyl-3-(trifluoromethyl)-[1,2,4]triazolo[4,3-a]pyridin-7-yl)propanoic Acid]	270
< 1	Cc1cnc2c(c1)S(=O)(=O)N(Cc1cc([C@H](c3ccn4c(C(F)(F)F)nnc4c3C)C(C)(C)C(=O)O)ccc1C)C[C@@]1(CCOC1)O2 (single isomer, unassigned) [Example 388, (*R)-2,2-Dimethyl-3-(4-methyl-3-(((*R)-8′-methyl-1′,1′-dioxido-4,5-dihydro-2H-spiro[furan-3,4′-pyrido[2,3-b][1,4,5]oxathiazepin]-2′(3′H)-yl)methyl)phenyl)-3-(8-methyl-3-(trifluoromethyl)-[1,2,4]triazolo[4,3-a]pyridin-7-yl)propanoic Acid]	1
2100	Cc1cnc2c(c1)S(=O)(=O)N(Cc1cc([C@H](c3ccn4c(C5CC5)nnc4c3C)C(C)(C)C(=O)O)ccc1C)CC1(CC1)O2 (single isomer, unassigned) [Example 393, (*R)-3-(3-Cyclopropyl-8-methyl-[1,2,4]triazolo[4,3-a]pyridin-7-yl)-2,2-dimethyl-3-(4-methyl-3-((8′-methyl-1′,1′-dioxidospiro[cyclopropane-1,4′-pyrido[2,3-b][1,4,5]oxathiazepin]-2′(3′H)-yl)methyl)phenyl)propanoic Acid]	4800
